Measurements from US9695155B2, “Herbicidal substituted pyrimidinyloxy benzene compounds” (E. I. DU PONT DE NEMOURS AND COMPANY, priority 2013, dated 2017).

Tests used:
large (Lg) crabgrass = test: Test C postemergence; type: in vivo, Digitaria sanguinalis
In short: (§1)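 Sown in loam/sand → sprayed pre-emergence; or grown to 1–4 leaves in peat mix → sprayed post-emergence. Same solvent/surfactant formulation both ways. Greenhouse 13–15 d. Score 0–100 visual.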

oilseed rape [1] = test: Test C preemergence; type: in vivo, Brassica napus; details: for Oilseed Rape plant response rating: preemergence; for Plant response rating, Oilseed Rape: Preemergence, 31 g ai/ha, scale 0 to 100, 0 no effect, 100 complete control
In short: as §1

corn = test: Test C preemergence; type: in vivo, Zea mays; details: for Corn plant response rating: preemergence; for Plant response rating, Corn: Preemergence, 31 g ai/ha, scale 0 to 100, 0 no effect, 100 complete control
In short: as §1

barnyardgrass [2] = test: Test C postemergence; type: in vivo, Echinochloa crus-galli
In short: as §1

soybean = test: Test C postemergence; type: in vivo, Glycine max; details: for Plant response rating, Soybean: scale 0 to 100 (0 no effect, 100 complete control)
In short: as §1

sedge, umbrella = test: Test B flooded paddy test; type: in vivo, Cyperus difformis; details: Flood, 250 g ai/ha; 0 to 100 scale where 0 is no effect and 100 is complete control
In short: (§2)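 Greenhouse flooded-pot test: compounds dosed into 3 cm standing water over 2-leaf plants, flood held constant. Rated visually after 13–15 days on 0–100 (complete control = 100); a dash marks no test result.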

barnyardgrass [3] = test: Test C preemergence; type: in vivo, Echinochloa crus-galli; details: for Barnyardgrass plant response rating: preemergence; for Plant response rating, Barnyardgrass: Preemergence, 31 g ai/ha, scale 0 to 100, 0 no effect, 100 complete control
In short: as §1

waterhemp = test: Test C postemergence; type: in vivo, Amaranthus rudis; details: for Plant response rating, Waterhemp: scale 0 to 100 (0 no effect, 100 complete control)
In short: as §1

giant foxtail = test: Test C preemergence; type: in vivo, Setaria faberii; details: for Foxtail, Giant plant response rating: preemergence; for Plant response rating, Foxtail, Giant: Preemergence, 31 g ai/ha, scale 0 to 100, 0 no effect, 100 complete control
In short: as §1

velvetleaf = test: Test C postemergence; type: in vivo, Abutilon theophrasti; details: for Plant response rating, Velvetleaf: scale 0 to 100 (0 no effect, 100 complete control)
In short: as §1

barnyardgrass [4] = test: Test B flooded paddy test; type: in vivo, Echinochloa crus-galli; details: Flood, 250 g ai/ha; 0 to 100 scale where 0 is no effect and 100 is complete control
In short: as §2

oilseed rape [5] = test: Test C postemergence; type: in vivo, Brassica napus; details: for Plant response rating, Oilseed Rape: scale 0 to 100 (0 no effect, 100 complete control)
In short: as §1

[6] = 16 g ai/ha, postemergence, visual rating, scale 0 to 100 (0 no effect, 100 complete control), 13 to 15 days
[7] = Postemergence, 31 g ai/ha, scale 0 to 100 (0 no effect, 100 complete control), 13 to 15 days
[8] = Postemergence, 62 g ai/ha, scale 0 to 100 (0 no effect, 100 complete control)
[9] = 16 g ai/ha, scale 0 to 100 (0 no effect, 100 complete control)
[10] = 62 g ai/ha, scale 0 (no effect) to 100 (complete control)
[11] = 125 g ai/ha, scale 0 (no effect) to 100 (complete control)
[12] = Postemergence, 31 g ai/ha, 13 to 15 days
[13] = 16 g ai/ha, postemergence, 0 is no effect, 100 is complete control
[14] = 125 g ai/ha, postemergence, visual rating, scale 0 to 100 (0 no effect, 100 complete control)
[15] = 125 g ai/ha, postemergence, visual rating

Compound	Plant response rating, Crabgrass, Large (large (Lg) crabgrass; [8])	Oilseed Rape plant response rating (oilseed rape [1]; [9])	Oilseed Rape plant response rating (oilseed rape [1]; [10])	Oilseed Rape plant response rating (oilseed rape [1]; [11])	Plant response rating, Oilseed Rape (oilseed rape [1])	Corn plant response rating (corn; [9])	Corn plant response rating (corn; [10])	Corn plant response rating (corn; [11])	Plant response rating, Corn (corn)	Plant response rating, Barnyardgrass (barnyardgrass [2]; [7])	Plant response rating, Barnyardgrass (barnyardgrass [2]; [8])	Plant response rating, Soybean (soybean; Postemergence, 62 g ai/ha)	Plant response rating, Sedge, Umbrella (sedge, umbrella)	Barnyardgrass plant response rating (barnyardgrass [3]; [9])	Barnyardgrass plant response rating (barnyardgrass [3]; [10])	Barnyardgrass plant response rating (barnyardgrass [3]; [11])	Plant response rating, Barnyardgrass (barnyardgrass [3])	Plant response rating, Waterhemp (waterhemp; Postemergence, 62 g ai/ha)	Foxtail, Giant plant response rating (giant foxtail; [9])	Foxtail, Giant plant response rating (giant foxtail; [10])	further results
CCOc1cnn(-c2c(C#N)cccc2Oc2ncc(F)cn2)c1 [Compound 89]	5	80	95	98	80	0	0	5	0	5	5	90	85	5	70	100	35	30	5	100	Crabgrass, Large plant response rating (large (Lg) crabgrass; [6]): 5; Plant response rating (0 to 100), Crabgrass, Large (large (Lg) crabgrass; 125 g ai/ha, postemergence): 5; Plant response rating, Crabgrass, Large (large (Lg) crabgrass; [7]): 5; Barnyardgrass plant response rating (barnyardgrass [2]; [6]): 0; Plant response rating (0 to 100), Barnyardgrass (barnyardgrass [2]; 125 g ai/ha, postemergence): 5; Plant response rating (0 to 100), Soybean (soybean; 125 g ai/ha, postemergence): 95; Plant response rating, Soybean (soybean; [12]): 65; Plant response rating (0 to 100), Waterhemp (waterhemp; 125 g ai/ha, postemergence): 60; Plant response rating, Waterhemp (waterhemp; [12]): 40; Foxtail, Giant plant response rating (giant foxtail; [11]): 100; Plant response rating, Foxtail, Giant (giant foxtail): 35; Plant response rating (0 to 100), Velvetleaf (velvetleaf; 125 g ai/ha, postemergence): 40; Plant response rating, Velvetleaf (velvetleaf; [12]): 15; Plant response rating, Velvetleaf (velvetleaf; Postemergence, 62 g ai/ha): 25; Plant response rating, Barnyardgrass (barnyardgrass [4]): 10; Plant response rating (0 to 100), Oilseed Rape (oilseed rape [5]; 125 g ai/ha, postemergence): 60; Plant response rating, Oilseed Rape (oilseed rape [5]; [12]): 25; Plant response rating, Oilseed Rape (oilseed rape [5]; Postemergence, 62 g ai/ha): 55
Clc1cnc(Oc2cccc(Br)c2-n2cc(Br)nn2)nc1 [Compound 129]	5	50	100	100	85	0	5	30	5	5	5	85	65	5	40	90	15	65	0	100	Plant response rating (0 to 100), Crabgrass, Large (large (Lg) crabgrass; [13]): 5; Plant response rating, Crabgrass, Large (large (Lg) crabgrass; [14]): 10; Plant response rating (0 to 100), Barnyardgrass (barnyardgrass [2]; [13]): 5; Plant response rating, Barnyardgrass (barnyardgrass [2]; [14]): 5; Plant response rating (0 to 100), Soybean (soybean; [13]): 35; Plant response rating, Soybean (soybean; [15]): 60; Plant response rating (0 to 100), Waterhemp (waterhemp; [13]): 65; Plant response rating, Waterhemp (waterhemp; [15]): 85; Foxtail, Giant plant response rating (giant foxtail; [11]): 100; Plant response rating, Foxtail, Giant (giant foxtail): 80; Plant response rating (0 to 100), Velvetleaf (velvetleaf; [13]): 15; Plant response rating, Velvetleaf (velvetleaf; [15]): 40; Plant response rating, Velvetleaf (velvetleaf; Postemergence, 62 g ai/ha): 40; Plant response rating, Barnyardgrass (barnyardgrass [4]): 0; Plant response rating (0 to 100), Oilseed Rape (oilseed rape [5]; [13]): 5; Plant response rating, Oilseed Rape (oilseed rape [5]; [15]): 60; Plant response rating, Oilseed Rape (oilseed rape [5]; Postemergence, 62 g ai/ha): 60
